Legend:
[1] = system: hGYS1 enzyme / glycogen synthesis in HeLa cells; assay: GYS1 cell based assay (glycogen synthesis, Glucose-glo); parameters: species or system human; conditions: Homo sapiens, HeLa, 24 h, 24 h incubation, 20 mM glucose, geometric mean of at least 2 runs
Description: The GYS1 cell based assay is a bioluminescent assay that quantifies the glucose resulting from glycogen digestion; the quantified glucose is an indirect measure of GYS1 glycogen synthesis. Newly synthesized glycogen is digested using Glucoamylase; the resulting glucose is quantified by using the Glucose-glo assay kit from Promega. Glucose-glo works by coupling glucose oxidation and NADH production with a bioluminescent system that is activated with NADH. Glucose is oxidized by Glucose dehydrogenase and the reaction reduces NAD+ to NADH; NADH activates Reductase which reduces a pro-luciferin Reductase Substrate to luciferin. Luciferin is detected in a luciferase reaction using Ultra-Glo rLuciferase and ATP, and the luminesce produced is proportional to the glucose in the sample. The luminescence is measured as a single point read in a plate reader.
Compounds that inhibit the hGYS1 enzyme and, subsequently, the glycogen synthesis in cells, were tested using assay ready plates (white, clear bottom 384 well plates) in a final DMSO reaction volume of 1% DMSO. Compounds in the assay ready plates were mixed with media with no additives, except for 20 mM glucose prior to cell addition. HeLa cells were starved in media with no additives, except for 1× Glutamax for 24 h. Starved HeLa cells were plated, in a 1:1 ratio to the media in the assay ready plate and incubated for 24 h at 37° C. and 5% C02. Cells were washed in 1×PBS buffer and lysed in lysis buffer containing 50% 1×PBS and 25% 0.3 N HCl of the final volume in the well or reaction volume; cells were incubated with lysis buffer for 10 minutes and quenched with the remaining 25% of the reaction volume that consisted of 450 mM Tris pH 8.0. Lysates were mixed in a 1:1 ratio with Glucoamylase in 100 mM Sodium Acetate buffer, pH 5.3; the mixture was incubated for 1 h at 37° C. The digested lysate was mixed in a 1:1 ratio with Glucose-glo detection mixture as per vendor recommendations (Luciferase detection buffer, Reductase, Reductase substrate, Glucose dehydrogenase, and NAD) in read-out plates (solid white 384-well plates) and incubated for 1 h at RT. The plates were read using a plate reader with luminescence capabilities. Each compound concentration Relative Luminescence Unit (RLU) was averaged and normalized to the average RLU of the positive and negative controls to obtain a percentage inhibition. The normalized data vs. concentration was plotted; to determine the half-maximal concentration (IC50), the Levenberg-Marquardt algorithm was used to fit a Hill equation to the dose response data.
The results are shown in Table 3 below, which reports the IC50 of each compound. Unless otherwise specified, IC50 values are reported as the geometric mean of at least 2 assay runs on separate days. As shown in the table below, the compounds of the present invention are potent inhibitors of human GYS1. Unless otherwise specified, IC50 values are reported as the geometric mean of at least two assay runs on separate days. Each run represents the average of a technical replicate, where each compound was assayed twice in the same plate. A superscript “#” symbol in Table 3 indicates results from a single assay run.

[2] = target: hGYS2 enzyme (recombinant hGYS2/GN1 protein) (Homo sapiens (Human), UniProt P54840); assay: GYS2 coupled enzyme assay (PK/LDH); format: biochemical; conditions: geometric mean of at least 2 assay runs on separate days, read-out: Avg_IC50
Chain of hGYS2 enzyme (recombinant hGYS2/GN1 protein) (P54840 whole entry): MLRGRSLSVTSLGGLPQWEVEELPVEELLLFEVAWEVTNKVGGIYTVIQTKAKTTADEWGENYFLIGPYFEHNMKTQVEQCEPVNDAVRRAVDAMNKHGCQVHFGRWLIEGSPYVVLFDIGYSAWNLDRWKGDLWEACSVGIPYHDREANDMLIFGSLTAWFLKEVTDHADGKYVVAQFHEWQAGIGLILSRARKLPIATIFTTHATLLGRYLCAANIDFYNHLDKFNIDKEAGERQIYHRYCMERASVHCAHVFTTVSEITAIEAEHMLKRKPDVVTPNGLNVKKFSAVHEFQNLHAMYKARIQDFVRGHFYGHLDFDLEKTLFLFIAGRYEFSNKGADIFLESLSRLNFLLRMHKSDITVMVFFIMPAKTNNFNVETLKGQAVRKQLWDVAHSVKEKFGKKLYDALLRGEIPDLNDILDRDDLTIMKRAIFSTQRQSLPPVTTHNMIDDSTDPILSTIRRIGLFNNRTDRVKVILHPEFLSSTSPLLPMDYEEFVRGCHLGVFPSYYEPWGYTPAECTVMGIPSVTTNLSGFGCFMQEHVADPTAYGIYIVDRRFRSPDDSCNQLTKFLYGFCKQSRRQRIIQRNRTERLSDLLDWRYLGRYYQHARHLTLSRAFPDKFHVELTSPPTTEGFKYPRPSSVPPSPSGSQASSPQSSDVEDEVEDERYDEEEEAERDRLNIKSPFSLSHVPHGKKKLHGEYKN
Chain of hGYS2 enzyme (recombinant hGYS2/GN1 protein) (P46976 whole entry partner): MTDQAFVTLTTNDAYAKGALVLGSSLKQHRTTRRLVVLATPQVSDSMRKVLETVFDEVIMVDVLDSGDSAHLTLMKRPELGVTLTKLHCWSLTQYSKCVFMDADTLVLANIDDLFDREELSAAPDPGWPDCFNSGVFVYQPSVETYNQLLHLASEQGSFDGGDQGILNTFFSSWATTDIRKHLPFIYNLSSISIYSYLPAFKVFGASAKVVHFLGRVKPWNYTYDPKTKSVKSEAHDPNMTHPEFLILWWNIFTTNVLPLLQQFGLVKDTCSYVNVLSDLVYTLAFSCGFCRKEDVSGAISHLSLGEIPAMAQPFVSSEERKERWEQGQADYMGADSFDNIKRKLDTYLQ
Outline: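 IC50 came from Hill fits of duplicate percent inhibition, based on control-normalized slopes of 340 nm NADH decline read each minute for 10 min. The reaction held recombinant hGYS2/GN1 (200 nM) with glycogen, UDP-glucose, G6P and PEP, plus PK/LDH coupling at pH 7.5 and 2.5% DMSO.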

[3] = target: hGYS1 enzyme (recombinant hGYS1/GN1 protein) (Homo sapiens (Human), UniProt P13807); assay: GYS1 coupled enzyme assay (PK/LDH); format: biochemical; conditions: hGYS1/GN1 50 nM, UDP-Glucose 0.8 mM, G6P 1 mM; geometric mean of at least 2 runs
Chain of hGYS1 enzyme (recombinant hGYS1/GN1 protein) (P13807 whole entry): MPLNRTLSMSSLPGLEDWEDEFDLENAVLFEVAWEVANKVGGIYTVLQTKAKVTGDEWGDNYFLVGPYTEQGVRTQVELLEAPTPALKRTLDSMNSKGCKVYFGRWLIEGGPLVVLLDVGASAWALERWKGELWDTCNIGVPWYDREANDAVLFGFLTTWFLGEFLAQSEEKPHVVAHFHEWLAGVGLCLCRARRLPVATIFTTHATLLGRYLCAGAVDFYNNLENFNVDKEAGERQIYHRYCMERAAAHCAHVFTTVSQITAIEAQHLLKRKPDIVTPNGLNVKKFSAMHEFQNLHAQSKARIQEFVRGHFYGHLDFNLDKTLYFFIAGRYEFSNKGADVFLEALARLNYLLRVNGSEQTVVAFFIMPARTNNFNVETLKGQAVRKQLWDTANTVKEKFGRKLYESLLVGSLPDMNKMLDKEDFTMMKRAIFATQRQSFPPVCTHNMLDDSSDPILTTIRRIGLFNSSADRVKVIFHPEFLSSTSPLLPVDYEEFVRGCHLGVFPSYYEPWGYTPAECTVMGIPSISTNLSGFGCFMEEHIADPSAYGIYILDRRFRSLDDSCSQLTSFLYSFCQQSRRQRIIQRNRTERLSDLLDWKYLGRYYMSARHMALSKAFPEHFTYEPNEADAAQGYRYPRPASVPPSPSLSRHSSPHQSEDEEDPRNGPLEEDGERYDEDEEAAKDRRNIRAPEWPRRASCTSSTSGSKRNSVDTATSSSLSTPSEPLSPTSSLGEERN
Chain of hGYS1 enzyme (recombinant hGYS1/GN1 protein) (P46976 whole entry partner): as the sequence (P46976 whole entry partner) above

| IC50 [1] [nM] | IC50 [2] [nM] | IC50 [3] [nM] | SMILES |
| --- | --- | --- | --- |
| 22300 |  |  | O=C(N[C@H](c1ccccc1)c1ccc(C2CC2)c(F)n1)[C@@H]1C[C@@H](F)CN1C(=O)Cn1cnc2ccccc21 [Compound 716, (2S,4R)-1-[2-(1H-1,3-benzodiazol-1-yl)acetyl]-N-[(R)-(5-cyclopropyl-6-fluoropyridin-2-yl)(phenyl)methyl]-4-fluoropyrrolidine-2-carboxamide] |
| 1230 |  |  | NC(=O)NCC(=O)N1C[C@H](F)C[C@H]1C(=O)N[C@@H](c1ccccc1)c1ccc(C2CC2)c(F)n1 [Compound 302, (2S,4R)-1-[2-(carbamoylamino)acetyl]-N-[(S)-(5-cyclopropyl-6-fluoropyridin-2-yl)(phenyl)methyl]-4-fluoropyrrolidine-2-carboxamide] |
| 9200 |  |  | CC(=O)N1C[C@H](F)C[C@H]1C(=O)NC(c1cccc(-c2cc(C)nn2C)c1)c1ccc(C(C)C)c(F)n1 (single isomer, unassigned) [Compound 697, (2S,4R)-1-acetyl-N-[(S) or (R)-[3-(1,3-dimethyl-1H-pyrazol-5-yl)phenyl][6-fluoro-5-(propan-2-yl)pyridin-2-yl]methyl]-4-fluoropyrrolidine-2-carboxamide] |
| 130 |  |  | CC(C)c1ccc([C@@H](NC(=O)[C@@H]2C[C@@H](F)CN2C(=O)Cn2cc(N3CCC3)nn2)c2ccccc2)nc1F [Compound 787, (2S,4R)-1-{2-[4-(azetidin-1-yl)-1H-1,2,3-triazol-1-yl]acetyl}-4-fluoro-N-[(S)-[6-fluoro-5-(propan-2-yl)pyridin-2-yl](phenyl)methyl] pyrrolidine-2-carboxamide] |
| 630 |  |  | O=C(N[C@@H](c1ccccc1)c1ccc(C2CC2)c(F)n1)[C@@H]1C[C@@H](F)CN1C(=O)CNC(=O)N1CCC1 [Compound 305, (2S,4R)-1-{2-[(azetidine-1-carbonyl)amino]acetyl}-N-[(S)-(5-cyclopropyl-6-fluoropyridin-2-yl)(phenyl)methyl]-4-fluoropyrrolidine-2-carboxamide] |
| 3290 |  |  | COc1cccc(C(NC(=O)[C@@H]2C[C@@H](F)CN2C(C)=O)c2ccc(C(C)C)c(F)n2)c1 (single isomer, unassigned) [Compound 654, (2S,4R)-1-acetyl-4-fluoro-N-[(S) or (R)-[6-fluoro-5-(propan-2-yl)pyridin-2-yl](3-methoxyphenyl)methyl]pyrrolidine-2-carboxamide] |
|  | > 100000 | 77 | CC(=O)N(C)CC(=O)N1C[C@H](F)C[C@H]1C(=O)N[C@@H](c1ccccc1)c1ccc(C(C)C)cc1 [Compound 142, (2S,4R)-4-fluoro-1-[2-(N-methylacetamido)acetyl]-N-[(S)-phenyl[4-(propan-2-yl)phenyl]methyl]pyrrolidine-2-carboxamide] |
|  | > 100000 | 237 | CC(C)c1ccc([C@@H](NC(=O)[C@@H]2C[C@@H](F)CN2C(=O)CC#N)c2ccccc2)cc1 [Compound 188, (2S,4R)-1-(2-cyanoacetyl)-4-fluoro-N-[(S)-phenyl[4-(propan-2-yl)phenyl]methyl]pyrrolidine-2-carboxamide] |
|  | > 100000 | 106 | CC(C)c1ccc([C@@H](NC(=O)[C@@H]2C[C@@H](F)CN2C(=O)CCc2cnn(C)c2)c2ccccc2)cc1 [Compound 76, (2S,4R)-4-fluoro-1-[3-(1-methyl-1H-pyrazol-4-yl)propanoyl]-N-[(S)-phenyl[4-(propan-2-yl)phenyl]methyl]pyrrolidine-2-carboxamide] |
|  | > 100000 | 113 | CC(=O)N[C@@H](CC(N)=O)C(=O)N1C[C@H](F)C[C@H]1C(=O)N[C@@H](c1ccccc1)c1ccc(C(C)C)cc1 [Compound 208, (2S,4R)-1-[(2S)-3-carbamoyl-2-acetamidopropanoyl]-4-fluoro-N-[(S)-phenyl[4-(propan-2-yl)phenyl]methyl]pyrrolidine-2-carboxamide] |
|  | > 100000 | 249 | Cc1nccn1CCCC(=O)N1C[C@H](F)C[C@H]1C(=O)N[C@@H](c1ccccc1)c1ccc(C(C)C)cc1 [Compound 105, (2S,4R)-4-fluoro-1-[4-(2-methyl-1H-imidazol-1-yl)butanoyl]-N-[(S)-phenyl[4-(propan-2-yl)phenyl]methyl]pyrrolidine-2-carboxamide] |
|  | > 100000 | 33 | CC(C)c1ccc([C@@H](NC(=O)[C@@H]2C[C@@H](F)CN2C(=O)Cn2cncn2)c2ccccc2)cc1 [Compound 16, (2S,4R)-4-fluoro-N-[(S)-phenyl[4-(propan-2-yl)phenyl]methyl]-1-[2-(1H-1,2,4-triazol-1-yl)acetyl]pyrrolidine-2-carboxamide] |
|  | > 100000 | 157 | O=C(N[C@@H](c1ccccc1)c1ccc(C2CC2)c(F)c1)[C@@H]1C[C@@H](F)CN1C(=O)Cc1cn[nH]c1 [Compound 437, (2S,4R)-N-[(S)-(4-cyclopropyl-3-fluorophenyl)(phenyl)methyl]-4-fluoro-1-[2-(1H-pyrazol-4-yl)acetyl]pyrrolidine-2-carboxamide] |
|  | > 100000 | 19 | CC(C)c1ccc([C@@H](NC(=O)[C@@H]2C[C@@H](F)CN2C(=O)Cn2ccccc2=O)c2ccccc2)cc1 [Compound 51, (2S,4R)-4-fluoro-1-[2-(2-oxo-1,2-dihydropyridin-1-yl)acetyl]-N-[(S)-phenyl[4-(propan-2-yl)phenyl]methyl]pyrrolidine-2-carboxamide] |
|  | > 100000 | 54 | CC(C)c1ccc([C@@H](NC(=O)[C@@H]2C[C@@H](F)CN2C(=O)Cc2nnc(CNC(=O)OC(C)(C)C)o2)c2ccccc2)cc1 [Compound 237, tert-butyl N-[(5-{2-[(2S,4R)-4-fluoro-2-{[(S)-phenyl[4-(propan-2-yl)phenyl]methyl]carbamoyl}pyrrolidin-1-yl]-2-oxoethyl}-1,3,4-oxadiazol-2-yl)methyl]carbamate] |
|  | > 100000 | 96 | CC(C)c1ccc([C@@H](NC(=O)[C@@H]2C[C@@H](F)CN2C(=O)CN2CCOC2=O)c2ccccc2)cc1 [Compound 217] |
|  | > 100000 | 76 | CC(C)c1ccc([C@@H](NC(=O)[C@@H]2C[C@@H](F)CN2C(=O)CCc2ccccn2)c2ccccc2)cc1 [Compound 65, (2S,4R)-4-fluoro-N-[(S)-phenyl[4-(propan-2-yl)phenyl]methyl]-1-[3-(pyridin-2-yl)propanoyl]pyrrolidine-2-carboxamide] |
|  | > 100000 | 41 | CC(C)c1ccc([C@@H](NC(=O)[C@@H]2C[C@@H](F)CN2C(=O)CCc2cnc3[nH]ccc3c2)c2ccccc2)cc1 [Compound 134, (2S,4R)-4-fluoro-N-[(S)-phenyl[4-(propan-2-yl)phenyl]methyl]-1-(3-{1H-pyrrolo[2,3-b]pyridin-5-yl}propanoyl)pyrrolidine-2-carboxamide] |
|  | > 100000 | 67 | CC(=O)N1CC[C@@H](C(=O)N2C[C@H](F)C[C@H]2C(=O)N[C@@H](c2ccccc2)c2ccc(C(C)C)cc2)[C@@H]1c1cccnc1 [Compound 140, (2S,4R)-1-[(2R,3R)-1-acetyl-2-(pyridin-3-yl)pyrrolidine-3-carbonyl]-4-fluoro-N-[(S)-phenyl[4-(propan-2-yl)phenyl]methyl]pyrrolidine-2-carboxamide] |
